Source: ChEMBL document CHEMBL3885881, “DrugMatrix”

Species: Rattus norvegicus
Test: DrugMatrix - Regimen: Daily Repeat
Format: toxicity, organism-based, Sprague-Dawley
Parameters: regimen Daily Repeat, gender Male, age 6-8 weeks
Conditions: in vivo, po, route oral GAVAGE, vehicle .5 % CMC; for ABSOLUTE BASOPHIL / ABSOLUTE EOSINOPHIL / ABSOLUTE LYMPHOCYTE / ABSOLUTE MONOCYTE / ABSOLUTE SEGMENTED NEUTROPHIL / BASOPHIL / EOSINOPHIL / ERYTHROCYTE COUNT / HEMATOCRIT / HEMOGLOBIN / LEUKOCYTE COUNT / LYMPHOCYTE / MEAN CORPUSCULAR HEMOGLOBIN / MEAN CORPUSCULAR HEMOGLOBIN CONCENTRATION / MEAN CORPUSCULAR VOLUME / MONOCYTE / NEUTROPHIL / NUCLEATED RED BLOOD CELLS / PLATELET COUNT: tissue Blood; for ALANINE AMINOTRANSFERASE / ALBUMIN / ALKALINE PHOSPHATASE / ASPARTATE AMINOTRANSFERASE / BLOOD UREA NITROGEN / CARBON DIOXIDE / CHLORIDE / CHOLESTEROL / CREATINE PHOSPHOKINASE / CREATININE / GLUCOSE / LACTATE DEHYDROGENASE / LIPASE / PHOSPHORUS / POTASSIUM / SODIUM / TOTAL BILIRUBIN / TOTAL PROTEIN / URIC ACID: tissue Plasma
[1] = 0 mg/kg, 72 h, dose level Control, time 3 day
[2] = 0 mg/kg, 120 h, dose level Control, time 5 day
[3] = 10 mg/kg, 72 h, dose level Low, time 3 day

Compound: COc1c(C)c2c(c(O)c1C/C=C(\C)CCC(=O)OCCN1CCOCC1)C(=O)OC2 [MYCOPHENOLATE MOFETIL]
- ABSOLUTE BASOPHIL [1]: 0 CELLS/uL
- ABSOLUTE EOSINOPHIL [1]: 0 CELLS/uL
- ABSOLUTE LYMPHOCYTE [1]: 12191.17 CELLS/uL
- ABSOLUTE MONOCYTE [1]: 183.17 CELLS/uL
- ABSOLUTE SEGMENTED NEUTROPHIL [1]: 1192.33 CELLS/uL
- BASOPHIL [1]: 0%
- EOSINOPHIL [1]: 0%
- ERYTHROCYTE COUNT [1]: 5.51 x10E6/uL
- HEMATOCRIT [1]: 35.45%
- HEMOGLOBIN [1]: 13.82 G/DL
- LEUKOCYTE COUNT [1]: 13.57 x10E3/uL
- LYMPHOCYTE [1]: 89.83%
- MEAN CORPUSCULAR HEMOGLOBIN [1]: 25.1 pg
- MEAN CORPUSCULAR HEMOGLOBIN CONCENTRATION [1]: 38.98 G/DL
- MEAN CORPUSCULAR VOLUME [1]: 64.42 fL
- MONOCYTE [1]: 1.33%
- NEUTROPHIL [1]: 8.83%
- NUCLEATED RED BLOOD CELLS [1]: 0 /100WBC
- PLATELET COUNT [1]: 1118.17 x10E3/uL
- ALANINE AMINOTRANSFERASE [1]: 55 u/L
- ALBUMIN [1]: 4.15 G/DL
- ALKALINE PHOSPHATASE [1]: 449.5 u/L
- ASPARTATE AMINOTRANSFERASE [1]: 112.83 u/L
- BLOOD UREA NITROGEN [1]: 17.33 mg/dL
- CARBON DIOXIDE [1]: 29.5 mmol/L
- CHLORIDE [1]: 101 MEQ/L
- CHOLESTEROL [1]: 70 mg/dL
- CREATINE PHOSPHOKINASE [1]: 1325.83 u/L
- CREATININE [1]: 0.18 mg/dL
- GLUCOSE [1]: 171.5 mg/dL
- LACTATE DEHYDROGENASE [1]: 386 u/L
- LIPASE [1]: 10 u/L
- PHOSPHORUS [1]: 11.57 mg/dL
- POTASSIUM [1]: 6.21 MEQ/L
- SODIUM [1]: 141.65 MEQ/L
- TOTAL BILIRUBIN [1]: 0.15 mg/dL
- TOTAL PROTEIN [1]: 5.75 G/DL
- URIC ACID [1]: 1.28 mg/dL
- ABSOLUTE BASOPHIL [2]: 0 CELLS/uL
- ABSOLUTE EOSINOPHIL [2]: 138.17 CELLS/uL
- ABSOLUTE LYMPHOCYTE [2]: 13283.17 CELLS/uL
- ABSOLUTE MONOCYTE [2]: 303.83 CELLS/uL
- ABSOLUTE SEGMENTED NEUTROPHIL [2]: 1308.17 CELLS/uL
- BASOPHIL [2]: 0%
- EOSINOPHIL [2]: 1%
- ERYTHROCYTE COUNT [2]: 5.32 x10E6/uL
- HEMATOCRIT [2]: 33.8%
- HEMOGLOBIN [2]: 13.63 G/DL
- LEUKOCYTE COUNT [2]: 15.03 x10E3/uL
- LYMPHOCYTE [2]: 88.33%
- MEAN CORPUSCULAR HEMOGLOBIN [2]: 25.68 pg
- MEAN CORPUSCULAR HEMOGLOBIN CONCENTRATION [2]: 40.35 G/DL
- MEAN CORPUSCULAR VOLUME [2]: 63.67 fL
- MONOCYTE [2]: 1.83%
- NEUTROPHIL [2]: 8.83%
- NUCLEATED RED BLOOD CELLS [2]: 0 /100WBC
- PLATELET COUNT [2]: 1097.5 x10E3/uL
- ALANINE AMINOTRANSFERASE [2]: 54.5 u/L
- ALBUMIN [2]: 4.27 G/DL
- ALKALINE PHOSPHATASE [2]: 337 u/L
- ASPARTATE AMINOTRANSFERASE [2]: 94.67 u/L
- BLOOD UREA NITROGEN [2]: 17 mg/dL
- CARBON DIOXIDE [2]: 28.33 mmol/L
- CHLORIDE [2]: 101.5 MEQ/L
- CHOLESTEROL [2]: 71.33 mg/dL
- CREATINE PHOSPHOKINASE [2]: 628.17 u/L
- CREATININE [2]: 0.19 mg/dL
- GLUCOSE [2]: 177.83 mg/dL
- LACTATE DEHYDROGENASE [2]: 500.5 u/L
- LIPASE [2]: 9.5 u/L
- PHOSPHORUS [2]: 12.3 mg/dL
- POTASSIUM [2]: 5.63 MEQ/L
- SODIUM [2]: 143.03 MEQ/L
- TOTAL BILIRUBIN [2]: 0.2 mg/dL
- TOTAL PROTEIN [2]: 6.02 G/DL
- URIC ACID [2]: 1.5 mg/dL
- ABSOLUTE BASOPHIL [3]: 0 CELLS/uL
- ABSOLUTE EOSINOPHIL [3]: 76.67 CELLS/uL
- ABSOLUTE LYMPHOCYTE [3]: 12148 CELLS/uL
- ABSOLUTE MONOCYTE [3]: 38.33 CELLS/uL
- ABSOLUTE SEGMENTED NEUTROPHIL [3]: 870.33 CELLS/uL
- BASOPHIL [3]: 0%
- EOSINOPHIL [3]: 0.67%
- ERYTHROCYTE COUNT [3]: 5.1 x10E6/uL
- HEMATOCRIT [3]: 32.07%
- HEMOGLOBIN [3]: 13.3 G/DL
- LEUKOCYTE COUNT [3]: 13.13 x10E3/uL
- LYMPHOCYTE [3]: 92%
- MEAN CORPUSCULAR HEMOGLOBIN [3]: 26.1 pg
- MEAN CORPUSCULAR HEMOGLOBIN CONCENTRATION [3]: 41.47 G/DL
- MEAN CORPUSCULAR VOLUME [3]: 62.87 fL
- MONOCYTE [3]: 0.33%
- NEUTROPHIL [3]: 7%
- NUCLEATED RED BLOOD CELLS [3]: 0 /100WBC
- PLATELET COUNT [3]: 1283 x10E3/uL
- ALANINE AMINOTRANSFERASE [3]: 58 u/L
- ALBUMIN [3]: 4.13 G/DL
- ALKALINE PHOSPHATASE [3]: 363.33 u/L
- ASPARTATE AMINOTRANSFERASE [3]: 110.33 u/L
- BLOOD UREA NITROGEN [3]: 16.33 mg/dL
- CARBON DIOXIDE [3]: 26.33 mmol/L
- CHLORIDE [3]: 102.67 MEQ/L
- CHOLESTEROL [3]: 70.67 mg/dL
- CREATINE PHOSPHOKINASE [3]: 1302.67 u/L
- CREATININE [3]: 0.14 mg/dL
- GLUCOSE [3]: 164 mg/dL
- LACTATE DEHYDROGENASE [3]: 334.67 u/L
- LIPASE [3]: 9.67 u/L
- PHOSPHORUS [3]: 13.07 mg/dL
- POTASSIUM [3]: 5.93 MEQ/L
- SODIUM [3]: 144.23 MEQ/L
- TOTAL BILIRUBIN [3]: 0.1 mg/dL
- TOTAL PROTEIN [3]: 5.53 G/DL
- URIC ACID [3]: 1.57 mg/dL
